Reference: paper PMC8867573 (ACS Omega, 2022)
Like-named read-outs stand apart in the source and are kept apart here.

Tests used:
[1] = target: T1, ScSLAC (small laccase, SLAC) (Streptomyces coelicolor, UniProt Q9XAL8); assay: spectrophotometric oxidation, […] nm, Michaelis-Menten or substrate inhibition fit; type: biochemical; conditions: read-out: DMP; pH 8.0, 42 °C; 0.25-15 mM substrate
T1 sequence (Q9XAL8 34-343): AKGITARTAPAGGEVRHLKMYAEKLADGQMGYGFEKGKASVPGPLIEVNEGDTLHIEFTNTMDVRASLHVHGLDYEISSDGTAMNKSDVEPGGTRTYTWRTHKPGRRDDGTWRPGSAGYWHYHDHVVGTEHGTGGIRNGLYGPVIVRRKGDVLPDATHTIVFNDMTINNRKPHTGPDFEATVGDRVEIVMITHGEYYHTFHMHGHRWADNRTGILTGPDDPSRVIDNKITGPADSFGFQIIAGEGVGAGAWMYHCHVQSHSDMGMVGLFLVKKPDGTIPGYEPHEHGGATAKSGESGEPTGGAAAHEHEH

[2] = target: T1, ScSLAC (small laccase, SLAC); assay: as above; conditions: read-out: Pyrogallol; pH 8.5, 42 °C; 0.025-1 mM substrate

Km [1] [µM]	Km [2] [µM]	SMILES
1100 ± 60	–	COc1cccc(OC)c1O [DMP, 2,6-dimethoxyphenol]
–	200 ± 60	Oc1cccc(O)c1O [Pyrogallol]
